Read-outs that look alike come from different tables or passages of the source. Values belong to the compound of their own block, whether it stands above or below them. Where a SMILES comes first, the peptide text is derived from it. Where no end group is shown, it is not given here. The star is where a group is joined. Cbz = O=C(OCc1ccccc1)*
Tests used:
TRB3 = biological target: T1, TRB3 (Homo sapiens, UniProt Q96RU7); experiment: Surface plasmon resonance binding of peptides to immobilized TRB3
T1 sequence (Q96RU7 1-358): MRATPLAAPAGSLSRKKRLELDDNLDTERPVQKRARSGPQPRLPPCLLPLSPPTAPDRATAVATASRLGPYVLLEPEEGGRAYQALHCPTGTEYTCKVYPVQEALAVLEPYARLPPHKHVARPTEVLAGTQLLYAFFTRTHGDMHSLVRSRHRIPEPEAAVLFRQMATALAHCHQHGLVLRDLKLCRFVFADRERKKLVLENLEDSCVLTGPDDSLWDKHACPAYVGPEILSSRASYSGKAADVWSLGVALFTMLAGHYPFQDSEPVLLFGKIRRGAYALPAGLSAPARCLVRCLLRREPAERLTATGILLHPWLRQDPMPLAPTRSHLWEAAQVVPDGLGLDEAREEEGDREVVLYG
Experimental: Binding kinetics between TRB3 and control, P2, P4, P6, P7, P8, P9, P11, A1, A2 or A3 were measured by a surface plasmon resonance assay using BIAcore T200 instrument (GE Healthcare, Pittsburgh, USA)[53]. The dissociation constant (KD) was calculated according to the BIA-evaluation software.

B16-F10 cells = experiment: B16-F10 tumour growth and metastasis in TRB3 knockdown KK-Ay mice given 3-MA or MG132; assay type: in vivo; settings: KK-Ay/TRB3-KD mice, B16-F10 s.c. or i.v.; 3-MA 30 mg kg^−1 per day or MG132 2.5 mg kg^−1 twice a week i.p.; n=6 per group; Supplementary Fig. 4g,h
Experimental: Seven-week-old KK-Ay mice were i.p. injected with TRB3-shRNA lentiviral particles (2 × 10^5 plaque-forming unit) to generate KK-Ay/TRB3-KD mice; over 75% depletion of TRB3 in target tissues (lungs and liver) was considered as effectively knocking down. 3-MA (30 mg kg^−1 per day) or MG132 (2.5 mg kg^−1 twice a week) was i.p. injected to the KK-Ay/TRB3-KD mice, from day 9 after tumour inoculation to the time of being killed. The evaluation of tumour growth and metastasis was described in the section of ‘Mouse Models for Tumour Growth and Metastasis'.
control-shRNA. Data are the summarized fold changes of proteins (control-
shRNA/TRB3-shRNA1) (upper) and representative spots showing
differentially expressed EGFR (framed) (lower). Data are representative of 2
independent assays. (e) The xenograft tumours express higher pro-
metastasis and pro-EMT factors in KK-Ay mice than that in C57 BL/6 mice.
Data are representative immunoblots of 4 independent assays. (f) The liver
and lung tissues express higher pro-metastasis and pro-EMT factors in
DMBA-treated KK-Ay mice than that in DMBA-treated C57 BL/6. Data are
representative immunoblots of 4 independent assays. (g,h) Suppressing
autophagy or UPS reverses the antitumour effect of TRB3 knockdown. TRB3
knockdown KK-Ay mice were s.c. injected with B16-F10 cells ([…]) or i.v. […]
Statistical significance was determined by Student’s t-test; *P<0.05, **P<0.01,

[1] = system: TRB3-silenced HepG2 cells; experiment: Protein turnover assay in TRB3-silenced HepG2 cells with degradation inhibitors; assay type: cell-based, human; settings: inhibitor 12 h, immunoblot, Fig. 3f
Experimental: Figure 3 Enhanced TRB3 compromises selective autophagy and clearance of UPS. (a) BEAS-2B cells were infected with TRB3-Myc-adenovirus expressing Myc-Tagged TRB3 with an independently expressing GFP. GFP-adenovirus was used as control. Indicated molecules were detected by immunoblotting. Data are representatives of four independent assays. (b) TRB3-silenced cells were treated with IGF-1 (100 nM) for 12 h and indicated proteins were detected by immunoblotting. Data are representatives of four independent assays. (c) Control or TRB3-silenced HepG2 cells were infected with adenovirus with mRFP-GFP-LC3-PE. After 24 h, the cells were treated with IGF-1 (100 nM) for 12 h and the flux rate of autophagy was detected with Live Cell Imaging Microscopy. Data are schematic drawing of the autophagy process (upper) and microscopy images showing red-coloured autophagolysosomes or red/green double-coloured autophagosomes (lower). Scale bar, 10 μm. See also Supplementary Movies 1–6. (d) Silencing TRB3 increased the number of autophagosomes (Avi) and autolysosomes (Avd) in HepG2 cells treated with or without IGF-1 (100 nM). Data are representative images of TEMs of three independent assays. Single arrows denote Avi; double arrows indicate Avd. Scale bar, 500 nm. The ratio of autophagic vacuole area to the cytoplasmic area was determined by morphometric analysis. Data are means±s.e.m. (e) TRB3-silenced cells were treated with IGF-1 (100 nM) for 12 h. Expression of indicated proteins was detected by immunoblotting. Data are representatives of four independent assays. (f) TRB3-silenced HepG2 cells were treated with bafilomycin (left) or MG132 (right) for 12 h. Indicated proteins were detected by immunoblotting. […] The cells were treated with or without IGF-1 for 12 h and the expression of Ub^G76V-GFP was immunoblotted with anti-GFP antibody (Ab; left) or detected with flow cytometry (right). […] The proliferative and invasive capacities of cells were evaluated with Edu (h) and transwell assays (i). Statistical significance was determined with one-way analysis of variance (ANOVA); *P<0.05; **P<0.01; ***P<0.001. […]

p62 = experiment: Cycloheximide chase of p62 degradation in HepG2 cells; assay type: cell-based, human; settings: CHX 10 μg ml^−1 after insulin/IGF-1 stimulation, 8.5 h without stimulation, three independent assays, Fig. 4b
Experimental: Figure 4 TRB3 mediates insulin/IGF-induced p62 accumulation. (a) HepG2 cells were treated with indicated stimulators for 12 h. The mRNAs were determined with RT–PCR using specific primer sets. Data are means±s.e.m of three independent assays. (b) HepG2 cells were incubated with cycloheximide (CHX) (10 μg ml^−1) for indicated time points after insulin/IGF-1 stimulation. Indicated proteins were detected with immunoblotting. Data are means±s.e.m of three independent assays. (c) Control or TRB3-silenced cells were incubated with CHX (10 μg ml^−1) for indicated time points after IGF-1 stimulation. Cell lysates were isolated for immunoblotting. Data are means±s.e.m of three independent assays. (d) HepG2 cells expressing p62- or control-siRNA were co-transfected with Ub^G76V-GFP. The cells were treated with IGF-1 for 12 h. The cell lysates were isolated for immunoblotting. Data are representative of immunoblots of three independent assays. (e) Cells expressing control-shRNA or TRB3-shRNAs were transfected with Ub^G76V-GFP plasmid plus or minus with p62-DDK-expressing plasmid. The lysates were isolated for immunoblotting. […] After 24 h, the cells were treated with IGF-1 for 12 h, and the flux rate of autophagy was detected with Live Cell Imaging Microscopy. […] Indicated proteins were evaluated with immunoblotting. […] Statistical significance was determined with Student's t-test; *P<0.05. […]

[2] = SPR, BIAcore T200, peptide passed over TRB3 immobilized on CM5 sensor chip, alanine scan of A2, Fig. 6f, read-out: KD

Compound: GAWLTRLLQTK [M2]
- Kd (TRB3): 0.402 µM

Compound: CC(C)C[C@@H](C=O)NC(=O)[C@H](CC(C)C)NC(=O)[C@H](CC(C)C)NC(=O)OCc1ccccc1 [MG132] (Cbz-Leu-Leu-Leu-aldehyde)
- effect on antitumour actions of TRB3 deficiency (B16-F10 cells): overturn the antitumour actions of TRB3 deficiency
- turnover of COX2, Twist and MMP-2 [1]: inhibited

- Kd (TRB3; [2]): 0.11 µM
Compound: GGWLARLLQTK [M5]

Compound: CO/C1=C\C(C)=C\[C@@H](C)[C@@H](O)[C@@H](C)C/C(C)=C/C=C/[C@H](OC)[C@@H]([C@@H](C)[C@@H](O)[C@H](C)[C@@]2(O)C[C@@H](O)[C@H](C)[C@@H](C(C)C)O2)OC1=O [bafilomycin]
- turnover of COX2, Twist and MMP-2 [1]: not inhibited
- turnover of LC3, EGFR, c-Myc, MMP1 and p62 [1]: inhibited

Compound: GGALTRLLQTK [M3]
- Kd (TRB3): 3.59 µM

Compound: GGWLTRLLATK [M9]
- Kd (TRB3): 35.6 µM

Compound: Cn1cnc(N)c2ncnc1-2 [3-MA]
- effect on antitumour actions of TRB3 deficiency (B16-F10 cells): overturn the antitumour actions of TRB3 deficiency

- Kd (TRB3; [2]): 11.8 µM
Compound: GGWLTRALQTK [M7]

Compound: IGF-1
- half-life of p62 degradation (p62): 24 h

Compound: AGWLTRLLQTK [M1]
- Kd (TRB3): 1.64 µM

Compound: GGWLTRLLQTA [M11]
- Kd (TRB3): 0.0731 µM

Compound: insulin
- half-life of p62 degradation (p62): 24 h

- Kd (TRB3; [2]): 0.000142 µM
Compound: GGWLTALLQTK [M6]

Compound: GGWLTRLLQAK [M10]
- Kd (TRB3): 0.381 µM

Compound: GGWATRLLQTK [M4]
- Kd (TRB3): 4.32 µM
